The results in this text go back to patent US20220153741A1, “HETEROCYCLIC COMPOUNDS AS INHIBITORS OF KRAS G12C” (Guangdong Newopp Biopharmaceuticals Co., Ltd., priority 2019, published 2022).

Where two headings read alike, the source gives them in different places. Bounds are passed on as bounds.

Broadly, the IC50 is the concentration that gives 50% inhibition. Lower therefore signals greater potency.

For data set [1] the following is noted: amide bond.
Data set [2] relates to NCI-H358 (H358, KRAS G12C) cancer cell line. The experiment in a line: 3D proliferation assay, NCI-H358 (CellTiter-Glo). It is filed as cell-based. The settings on record: 96-well spheroid plate, 4 days. How it is done:
(§1) 3D proliferation assay: NCI-H358 (H358, KRAS G12C) and LS513 (KRAS G12D) cancer cell lines were obtained from ATCC (American Type Culture Collection, VA). Cells were plated in 96-well spheroid plate (CORNING INC, NY)) in RPMI-1640 with 10% FBS. Compounds (11-point dilutions) and DMSO were added to the wells and incubated with cells for 4 days at 37° C. Cell viability was then determined by CellTiter-Glo (Promega, WI). IC50 values of compounds were determined as the concentration of 50% inhibition of cell viability compared to DMSO treated cells (A: IC50<0.1 μM; B: IC50 between 0.1 μM and 1 μM; C: IC50 between 1 μM and 10 μM; D: >10 μM; ND: not determined).

Data set [3] has as its system LS513 (KRAS G12D) cancer cell line. The experiment in a line: 3D proliferation assay, LS513 (CellTiter-Glo). It is filed as cell-based. Particulars: 96-well spheroid plate, 4 days. How it is done:
as §1
A general note: ATP-based viability assays read luminescence as a measure of living cells.

The test system of data set [4] is pERK1/2 in NCI-H358 cells. The experiment in a line: Phospho-ERK (pERK) assay in NCI-H358 cells. It is filed as cell-based. The settings on record: 3 hours compound treatment, pERK1/2 antibody fluorescence. How it is done: Phospho-ERK (pERK) assay: NCI-H358 cells were seeded in 96-well plates (Greiner) in RPMI-1640 with 10% FBS 16 hours prior to compound treatment. Serial dilution of compounds was made and added to wells, and then incubated at 37° C. for 3 hours. After the treatment, cells were fixed with 3.7% formaldehyde (VWR) for 20 min at RT, followed by being permeabilized with ice-cold methanol at −20° C. for 20 min. The methanol was then dumped and replaced with Intercept® (PBS) Blocking Buffer (LiCOR) supplemented with 0.05% Tween-20 and incubated at RT for 1 hour with gentle rocking. The blocking buffer was then replaced with the blocking buffer containing pERK1/2 antibody (Cell Signaling) and incubated at 4° C. overnight with gentle rocking. The plate was washed 5 times with 1×PBS+0.1% Tween-20. The blocking buffer containing LiCOR IRDye 680RD secondary antibody (LiCOR,) was then added and incubated for 1 hour at RT with gentle rocking. After washing 5 times with 1×PBS+0.1% Tween-20, the plate was read using CLARIOstar plate reader (BMG LABTECH GmbH). IC50 values were determined as the concentration of 50% inhibition of the fluorescence signal compared to DMSO treated cells (A: IC50<0.1 μM; B: IC50 between 0.1 μM and 1 μM; C: IC50 between 1 μM and 10 μM; D: >10 μM; ND: not determined).

Take `CC(C)c1cccc2c1-n1c(=O)[nH]c(=O)c3cc(F)c(nc31)-c1c(F)cccc1NC(=O)CN2`: the ring closure, yield of all isomers in data set [1] (from CC(C)c1cccc(NCC(=O)O)c1-n1c(=O)[nH]c(=O)c2cc(F)c(-c3c(N)cccc3F)nc21, TCFH/N-methylimidazole/pyridine, MeCN/DMF (1:1), 66.0 mM, 11.0 h) stood at 32.7%.
As to `CC(C)c1nccc2c1-n1c(=O)nc(O)c3cc(F)c(nc31)-c1c(F)cccc1NC(=O)CC2`, the ring closure, yield of all isomers in data set [1] (from CC(C)c1nccc(CCC(=O)O)c1-n1c(=O)nc(O)c2cc(F)c(-c3c(N)cccc3F)nc21, TCFH/NMI, DMF, 37.0 mM, 25.0 °C, 1.0 h) was found to be 46.7%.
As to `C=CC(=O)N1CCN(c2nc(=O)n3c4nc(c(F)cc24)-c2c(F)cccc2NCCCc2ccnc(C(C)C)c2-3)[C@@H](C)C1` (single isomer, unassigned) [Example 2A], the IC50 in data set [2] was < 100 nM; in data set [3] it was > 10000 nM; in data set [4] (Homo sapiens, NCI-H358, 3 h), < 100 nM.
For the compound `C=CC(=O)N1CCN(c2nc(=O)n3c4nc(c(F)cc24)-c2c(F)cccc2NCCCc2ccnc(C(C)C)c2-3)[C@@H](C)C1` (single isomer, unassigned) [Example 2B], the IC50 in data set [2] is 100 to 1000 nM; in data set [3] it was > 10000 nM; in data set [4], 100 to 1000 nM.
Turning to `C=CC(=O)N1CCN(c2nc(=O)n3c4nc(c(F)cc24)-c2c(F)cccc2NC(=O)CCc2ccnc(C(C)C)c2-3)[C@@H](C)C1` [Example 1, (S)-2^4-(4-Acryloyl-2-methylpiperazin-1-yl)-2^6,3^6-difluoro-1^2-isopropyl-2^1,2^2-dihydro-4-aza-2(1,7)-pyrido[2,3-d]pyrimidina-1(3,4)-pyridina-3(1,2)-benzenacycloheptaphane-2^2,5-dione], the IC50 in data set [2] (Homo sapiens, NCI-H358, 96 h) was < 100 nM; in data set [3] (Homo sapiens, LS-513, 96 h) it was > 10000 nM; in data set [4] (Homo sapiens, NCI-H358, 3 h), 100 to 1000 nM.
For `C=CC(=O)N1CCN(c2nc(=O)n3c4nc(c(F)cc24)-c2c(F)cccc2N(C)CCCc2ccnc(C(C)C)c2-3)[C@@H](C)C1` [Example 4, (S)-2^4-(4-acryloyl-2-methylpiperazin-1-yl)-2^6,3^6-difluoro-1^2-isopropyl-4-methyl-2^1,2^2-dihydro-4-aza-2(1,7)-pyrido[2,3-d]pyrimidina-1(3,4)-pyridina-3(1,2)-benzenacycloheptaphan-2^2-one], in that order: < 100 nM, > 10000 nM and < 100 nM.
As for `C=CC(=O)N1C[C@H](C)N(c2nc(=O)n3c4nc(c(F)cc24)-c2c(F)cccc2NCCCc2ccnc(C(C)C)c2-3)C[C@H]1C` [Example 7A, 2^4-((2S,5R)-4-acryloyl-2,5-dimethylpiperazin-1-yl)-2^6,3^6-difluoro-1^2-isopropyl-2^1,2^2-dihydro-4-aza-2(1,7)-pyrido[2,3-d]pyrimidina-1(3,4)-pyridina-3(1,2)-benzenacycloheptaphan-2^2-one], the IC50 in data set [2] (Homo sapiens, NCI-H358, 96 h) is 100 to 1000 nM; in data set [3] (Homo sapiens, LS-513, 96 h), > 10000 nM; in data set [4] (Homo sapiens, NCI-H358, 3 h), 100 to 1000 nM.
`C=CC(=O)N1C[C@H](C)N(c2nc(=O)n3c4nc(c(F)cc24)-c2c(F)cccc2NCCCc2ccnc(C(C)C)c2-3)C[C@H]1C` [Example 7B, 2^4-((2S,5R)-4-acryloyl-2,5-dimethylpiperazin-1-yl)-2^6,3^6-difluoro-1^2-isopropyl-2^1,2^2-dihydro-4-aza-2(1,7)-pyrido[2,3-d]pyrimidina-1(3,4)-pyridina-3(1,2)-benzenacycloheptaphan-2^2-one]: the half-maximal inhibitory concentration (IC50) in data set [2] is < 100 nM; in data set [3], > 10000 nM; in data set [4], < 100 nM.
Turning to `C=CC(=O)N1CCN(c2nc(=O)n3c4nc(c(F)cc24)-c2c(F)cccc2NCCSc2ccnc(C(C)C)c2-3)[C@@H](C)C1` [Example 9, (S)-2^4-(4-acryloyl-2-methylpiperazin-1-yl)-2^6,3^6-difluoro-1^2-isopropyl-2^1,2^2-dihydro-7-thia-4-aza-2(1,7)-pyrido[2,3-d]pyrimidina-1(3,4)-pyridina-3(1,2)-benzenacycloheptaphan-2^2-one], the IC50 in data set [2] (Homo sapiens, NCI-H358, 96 h) was < 100 nM; in data set [3] (Homo sapiens, LS-513, 96 h), > 10000 nM; in data set [4] (Homo sapiens, NCI-H358, 3 h), < 100 nM.
As for `C=CC(=O)N1CCN(c2nc(=O)n3c4nc(c(F)cc24)-c2c(Cl)cccc2NCCCc2ccnc(C(C)C)c2-3)[C@@H](C)C1` [Example 10, (S)-2^4-(4-acryloyl-2-methylpiperazin-1-yl)-3^6-chloro-2^6-fluoro-1^2-isopropyl-2^1,2^2-dihydro-4-aza-2(1,7)-pyrido[2,3-d]pyrimidina-1(3,4)-pyridina-3(1,2)-benzenacycloheptaphan-2^2-one], the IC50 is < 100 nM in data set [2] (Homo sapiens, NCI-H358, 96 h); > 10000 nM in data set [3] (Homo sapiens, LS-513, 96 h); < 100 nM in data set [4] (Homo sapiens, NCI-H358, 3 h).
As to `C=CC(=O)N1CCN(c2nc(=O)n3c4nc(c(F)cc24)-c2c(F)cccc2N(C(=O)C(C)(C)O)CCCc2ccnc(C(C)C)c2-3)[C@@H](C)C1` [Example 15, (S)-2^4-(4-acryloyl-2-methylpiperazin-1-yl)-2^6,3^6-difluoro-4-(2-hydroxy-2-methylpropanoyl)-1^2-isopropyl-2^1,2^2-dihydro-4-aza-2(1,7)-pyrido[2,3-d]pyrimidina-1(3,4)-pyridina-3(1,2)-benzenacycloheptaphan-2^2-one], the IC50 in data set [2] (Homo sapiens, NCI-H358, 96 h) is 100 to 1000 nM; in data set [3] (Homo sapiens, LS-513, 96 h), > 10000 nM; in data set [4] (Homo sapiens, NCI-H358, 3 h) it was 100 to 1000 nM.
For `C=CC(=O)N1CCN(c2nc(=O)n3c4nc(c(F)cc24)-c2c(F)cccc2NCCCc2cccc(C(C)C)c2-3)[C@@H](C)C1` [Example 17, (S)-2^4-(4-acryloyl-2-methylpiperazin-1-yl)-2^6,3^6-difluoro-1^6-isopropyl-2^1,2^2-dihydro-4-aza-2(1,7)-pyrido[2,3-d]pyrimidina-1,3(1,2)-dibenzenacycloheptaphan-2^2-one], the IC50 is < 100 nM in data set [2] (Homo sapiens, NCI-H358, 96 h); 1000 to 10000 nM in data set [3] (Homo sapiens, LS-513, 96 h); 100 to 1000 nM in data set [4] (Homo sapiens, NCI-H358, 3 h).
For `C=CC(=O)N1CCN(c2nc(=O)n3c4nc(c(F)cc24)-c2c(F)cccc2N(C)CCCc2cccc(C(C)C)c2-3)[C@@H](C)C1` [Example 19, (S)-2^4-(4-acryloyl-2-methylpiperazin-1-yl)-2^6,3^6-difluoro-1^6-isopropyl-4-methyl-2^1,2^2-dihydro-4-aza-2(1,7)-pyrido[2,3-d]pyrimidina-1,3(1,2)-dibenzenacycloheptaphan-2^2-one], the IC50 was < 100 nM in data set [2] (Homo sapiens, NCI-H358, 96 h); 1000 to 10000 nM in data set [3] (Homo sapiens, LS-513, 96 h); < 100 nM in data set [4] (Homo sapiens, NCI-H358, 3 h).
Regarding `C=CC(=O)N1C[C@H](C)N(c2nc(=O)n3c4nc(c(F)cc24)-c2c(F)cccc2NCCCc2cccc(C(C)C)c2-3)C[C@H]1C` [Example 20, 2^4-((2S,5R)-4-acryloyl-2,5-dimethylpiperazin-1-yl)-2^6,3^6-difluoro-1^6-isopropyl-2^1,2^2-dihydro-4-aza-2(1,7)-pyrido[2,3-d]pyrimidina-1,3(1,2)-dibenzenacycloheptaphan-2^2-one], the IC50 was < 100 nM in data set [2] (Homo sapiens, NCI-H358, 96 h); > 10000 nM in data set [3] (Homo sapiens, LS-513, 96 h); < 100 nM in data set [4] (Homo sapiens, NCI-H358, 3 h).
For the compound `C=CC(=O)N1CCN(c2nc(=O)n3c4nc(c(F)cc24)-c2c(F)cccc2NCCCNc2cccc(C(C)C)c2-3)[C@@H](C)C1` [Example 22, (S)-2^4-(4-acryloyl-2-methylpiperazin-1-yl)-2^6,3^6-difluoro-1^6-isopropyl-2^1,2^2-dihydro-4,8-diaza-2(1,7)-pyrido[2,3-d]pyrimidina-1,3(1,2)-dibenzenacyclooctaphan-2^2-one], the IC50 was < 100 nM in data set [2] (Homo sapiens, NCI-H358, 96 h); 100 to 1000 nM in data set [3] (Homo sapiens, LS-513, 96 h); 100 to 1000 nM in data set [4] (Homo sapiens, NCI-H358, 3 h).
As to `C=CC(=O)N1CCN(c2nc(=O)n3c4nc(c(F)cc24)-c2c(F)cccc2NCCCN(C)c2cccc(C(C)C)c2-3)[C@@H](C)C1` [Example 28, (S)-2^4-(4-acryloyl-2-methylpiperazin-1-yl)-2^6,3^6-difluoro-1^6-isopropyl-8-methyl-2^1,2^2-dihydro-4,8-diaza-2(1,7)-pyrido[2,3-d]pyrimidina-1,3(1,2)-dibenzenacyclooctaphan-2^2-one], the IC50 in data set [2] (Homo sapiens, NCI-H358, 96 h) is < 100 nM; in data set [3] (Homo sapiens, LS-513, 96 h) it was > 10000 nM; in data set [4] (Homo sapiens, NCI-H358, 3 h), 100 to 1000 nM.
Take “(S)-2^4-(4-acryloyl-2-methylpiperazin-1-yl)-2^6,3^6-difluoro-1^2-isopropyl-2^1,2^2-dihydro-8-thia-4-aza-2(1,7)-pyrido[2,3-d]pyrimidina-1(3,4)-pyridina-3(1,2)-benzenacyclooctaphan-2^2-one [Example 8]”: the values for the IC50 in data set [2], in data set [3] and in data set [4] were < 100 nM, > 10000 nM and < 100 nM, respectively.
